From patent US6677373B2, “Polymorphic B form of 3-(cyclopropylmethoxy)-4-[4-(methylsulfonyl)phenyl]-5,5-dimethyl-5H-furan-2-one” (Merial Limited, priority 1999, dated 2004)

How the values were obtained:
Format in all cases: physicochemical
[1] = Thermodynamic stability of the polymorphs, DSC (Differential Scanning Calorimetry); settings: for thermodynamic stability: compared with Polymorph A, monotropic system according to Burger's rule
Protocol: an endothermal peak around 90-100° C. due to melting of A form,
an exothermal peak corresponding to the transition A→B,
an endothermal peak around 120° C. due to melting of B form,
a very small exothermal peak corresponding to the transition A→B,
an endothermal peak due to melting of B form.
Therefore, the transition A→B is under kinetic control as usual in case of polymorphism. The transition from A to B may also be followed by X-Ray under heating (FIG. 7).

[2] = Carr Index (compressibility index, flowability) of unmilled product
Excerpt: After crystallization and before micronization, the Carr Index of B form is lower than 10 (in %). The Carr Index CI is defined as: [formula] where P is the packed bulk density (g cm^−3), L is the loose bulk density (g cm^−3). CI is also know as a compressibility index. A low figure for CI corresponds to a high degree of flowability. The Carr Index way be calculated from Mercury Intrusion Porosimetry or measured by Tap—Tap.

[3] = Solubility in methyltertiobutylether on recrystallization; settings: solid at 6.3% weight in methyltertiobutylether
Excerpt: Recrystallization of polymorph A for purification purposes leaded to solubility problems in methyltertiobutylether.

CC1(C)OC(=O)C(OCC2CC2)=C1c1ccc(S(C)(=O)=O)cc1 [Polymorph A, 3-(cyclopropylmethoxy)-4-[4-(methylsulfonyl)phenyl]-5,5-dimethyl-5H-furan-2-one]
behaviour when heated (DSC) ([1]; depending on the heating rate (40° C./mn, 2° C./mn)): transforms to form B | Carr Index ([2]; unmilled product, crystallisation process: Lab scale): 26 to 27% | Carr Index ([2]; unmilled product, crystallisation process: Pilot scale): 29 to 33%

CC1(C)OC(=O)C(OCC2CC2)=C1c1ccc(S(C)(=O)=O)cc1 [Polymorph B, 3-(cyclopropylmethoxy)-4-[4-(methylsulfonyl)phenyl]-5,5-dimethyl-5H-furan-2-one]
thermodynamic stability [1]: thermodynamically more stable than Polymorph A | thermodynamic stability ([1]; listed as B form): the most stable form | Carr Index ([2]; after crystallization and before micronization): lower than 10% | flow characteristics ([2]; compared with Polymorph A): better flow characteristics than Polymorph A | Carr Index ([2]; unmilled product, Recrystallisation in MTBE, Lab scale): 2 to 3% | Carr Index ([2]; unmilled product, Recrystallisation in MTBE, Pilot scale): 2 to 4%

CC1(C)OC(=O)C(OCC2CC2)=C1c1ccc(S(C)(=O)=O)cc1 [3-(cyclopropylmethoxy)-4-(4-methylsulfonyl)phenyl-5,5-dimethylfuranone]
solubility in methyltertiobutylether [3]: could no longer be solubilised
